Results from US20250243238A1, “TETRAZINE AMINO ACIDS AND METHODS FOR THEIR PRODUCTION AND USE” (Oregon State University, priority 2024, published 2025).

What was measured:
[1] = Stability and reactivity of incorporated Tet ncAA inside protein on storage in PBS; format: physicochemical
Experimental: The stability and reaction efficiency of incorporated Tet ncAAs in proteins was investigated. […] The SDS-PAGE gel mobility shift assay and mass spectrometry analysis of the incorporated Tet-v2.0, Tet-v3.0 and Tet-v4.0 derivatives confirmed their stability and reactivity with sTCO.
Mobility shift assay. Labeling efficiency and purity of Tet-containing proteins have been verified by reacting with 10 eqv. sTCO-PEG5k under PBS (pH 7.1) for 10 minutes at room temperature and examined the mobility shift of the reacted proteins in SDS-PAGE gel. The mobility shift assay helps to provide an insight into the reaction efficiency of Tet-containing proteins and also quantifies the amount of reactive Tet ncAA present in protein and measures if there is any misincorporation or Tet-degradation by showing unreactive protein.
In addition, to assess their stability and reactivity more rigorously, GFP-Tet-v4.0 (Ph, 3-Me-Ph, 3-F-Ph and Pyr) were incubated at 4° C. and room temperature (RT) under 50 mM PBS (pH 7.1) with 100 mM imidazole and studied their reaction efficiency for another 8 days.
Mass spectrometry. The site-specific labelling reaction between Tet ncAA and sTCO is quantitative inside protein was confirmed by ESI-Q-TOF mass spectrometry. […] No other peak has been detected for sTCO exposed samples which verified that the GFP-Tet reacts with sTCO quantitatively without involving side reactions.

[2] = system: Mb-PylRS/tRNACUA pairs D4 and E1; test: Efficiency, fidelity and permissivity of evolved synthetases: GFP150-TAG expression in E. coli with Tet ncAA; format: cell-based, Methanosarcina barkeri; conditions: synthetases D4 and E1
Experimental: (§1) To incorporate Tet ncAAs in the protein, a GCE machinery was developed to encode Tet ncAAs into the protein in response to TAG codon suppression with evolving orthogonal aaRS/tRNAcuA pair. The permissibility of developed synthetases for structurally parallel Tet ncAA derivatives was evaluated in 25 mL scale in presence and absence of 0.5 mM Tet ncAA.
(§2) Efficiency and fidelity of selected synthetases. The efficiency and fidelity of the selected synthetases were measured by expressing GFP150 in 50 mL AIM with and without 0.5 mM Tet4-Ph. DH10b cells containing the selected pBK-RSs and the pALS-GFP150TAG plasmids, were used to inoculate 5 mL of NIM containing kanamycin (50 μg/mL) and tetracycline (25 μg/mL). Cells were grown for 16 hours at 37° C. shaking at 250 rpm. The saturated NIM cultures (500 μL) were used to inoculate in 50 mL AIM containing kanamycin (50 μg/mL) and tetracycline (25 μg/mL) and measured fluorescence using a Turner Biosystems Picofluor fluorimeter diluting 100 μL cell culture in 1.9 mL water. Two synthetases D4 and E1 for Tet4-Ph were identified to have good efficiency and fidelity. The selected two synthetases are differ at two mutation sites C313A/G and W382I/V respectively.
(§3) Permissivity screen for Tet4-Pyr with selected synthetases. To assess if the top four selected RSs for Tet4-Ph could incorporate Tet4-Pyr, expressions of GFP150TAG with Tet4-Pyr were evaluated. Using the above efficiency and fidelity method, 5 mL AIM separate cultures were inoculated with cells containing the pBK-RSs/pALS-GFP150. Tet4-Pyr (0.5 mM) was added to cultures from a 50 mM DMF ncAA stock solution. Cultures were grown for 30-36 hours at 37° C. and 250 rpm. Fluorescence of the culture was measured by diluting 100 μL cell culture in 1.9 mL water.
(§4) Expression and purification of GFP150-TAG-Tet4. […] Protein concentration was determined by measuring absorbance at 280 nm. Protein purity was assessed using SDS-PAGE.

[3] = system: Pyl-tRNA/RS pairs (Tet4 E1 and D4 synthetases); test: Tet4 ncAA incorporation into GFP150-TAG in HEK293T cells, suppression efficiency by flow cytometry; format: cell-based, Methanosarcina barkeri; conditions: flow cytometry
Experimental: (§5) To access newly developed Tet4.0 derivatives into mammalian cells, an optimized eukaryotic expression system was used and their stability and reaction efficiency were validated inside living cells. The permissibility of Tet-v4.0 derivatives into eukaryotic protein was tested with an evolved synthetase Tet-v4.0 E1 and D4 co-transfected with the reporter plasmid pAcBac1-sfGFP-TAG150 into the HEK293T cells and supplemented with 100 μM each of five different Tet-v4.0 (Ph, 3-Me-Ph, 3-F-Ph, 4-F-Ph, and Pyr) derivatives side-by-side.
(§6) The compatibility of the Tet4 system with mammalian cells was explored. Specifically, the ability of Tet4 to be incorporated into proteins expressed in HEK293T cells, an immortalized human embryonic kidney cell line, was explored. […] Genes for Tet4 E1 and D4 synthetases were cloned with a terminal nuclear export sequence into the eukaryotic expression Pyl-tRNA/RS vector pAcBac1. Pyl-tRNA/RS pairs were then co-transfected with pAcBac1-GFP150-TAG into HEK293T cells and incubated either in the absence of ncAA, or with various concentrations of Tet4 ncAAs, and suppression efficiencies were assessed using flow cytometry. Tet4-Ph and Tet4-Pyr were incorporated into GFP about 50% as well as the Tet-v3.0 system, Tet3-Bu. As with Tet4 incorporation into E. coli expressed proteins, the highest suppression efficiencies in HEK293T cells were obtained with Mb-PylRS synthetase E1 and Tet4-Ph ncAA. Selective incorporation and reactivity of GFP150-Tet4 proteins were verified in whole-cell HEK293T lysates using sTCO-PEG5k-induced SDS-PAGE mobility shifts, and in purified proteins by mass spectrometry.
(§7) Transfection of HEK293T cells and imaging method. HEK293T cells were plated in a 24-well plate at the density of 40% confluency. Cells were transfected the next day using jetPRIME reagent according to the manufacturer's protocol. Briefly, 67 ng of pAcBac1-NES-D4-RS or pAcBac1-NES-E1-RS and 555 ng of pAcBac1-GFP-150TAG plasmid DNA were diluted with 50 μL of jetPRIME buffer. […] GFP expression was verified by fluorescence microscopy on EVOS FL imaging system.

[4] = target: T1, Mb-PylRS/tRNACUA pairs D4 and E1 (Methanosarcina barkeri, UniProt Q6WRH6, C313A/N311S/V366H/W382I); test: Efficiency, fidelity and permissivity of evolved synthetases: GFP150-TAG expression in E. coli with Tet ncAA; format: cell-based; conditions: synthetase D4 only
T1 construct: D4-Py1RS (Protein); expressed in transfected cells; host or cells: E. coli DH10b carrying pBK-RS and pALS-GFP150TAG
T1 sequence (Q6WRH6 whole entry N311S/C313A/V366H/W382I): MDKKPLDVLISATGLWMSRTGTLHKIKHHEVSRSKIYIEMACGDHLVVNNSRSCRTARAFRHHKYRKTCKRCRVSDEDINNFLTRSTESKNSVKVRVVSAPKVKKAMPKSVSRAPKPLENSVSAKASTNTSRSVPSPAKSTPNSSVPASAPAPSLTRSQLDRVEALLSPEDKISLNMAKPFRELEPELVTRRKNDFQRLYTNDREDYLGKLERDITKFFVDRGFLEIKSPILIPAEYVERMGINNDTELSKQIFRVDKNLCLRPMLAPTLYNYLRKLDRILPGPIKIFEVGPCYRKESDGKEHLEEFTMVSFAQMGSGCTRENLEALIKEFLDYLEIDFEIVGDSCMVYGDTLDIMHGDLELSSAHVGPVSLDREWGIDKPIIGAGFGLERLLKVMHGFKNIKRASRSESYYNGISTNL
Experimental: as §1, §2, §3, §4

[5] = target: T2, Pyl-tRNA/RS pairs (Tet4 E1 and D4 synthetases) (Methanosarcina barkeri, UniProt Q6WRH6, C313A/N311S/V366H/W382I); test: Tet4 ncAA incorporation into GFP150-TAG in HEK293T cells, suppression efficiency by flow cytometry; format: cell-based; conditions: 100 μM ncAA, synthetase D4
T2 construct: D4-Py1RS (Protein); expressed in transfected cells; host or cells: HEK293T
T2 sequence (Q6WRH6 whole entry N311S/C313A/V366H/W382I): as above
Experimental: as §5, §6, §7

Structure (SMILES): N[C@@H](Cc1nnc(-c2ccccc2)nn1)C(=O)O [Tet4-Ph, (S)-2-amino-3-(6-phenyl-1,2,4,5-tetrazin-3-yl)propanoic acid]
- stability inside protein ([1]; PBS pH 7.1, both 4° C. and RT, after 8 days): highly stable
- yield of GFP150-TAG expressed with the ncAA [2]: 55 to 60 mg/L
- incorporation into GFP relative to the Tet-v3.0 system, Tet3-Bu [3]: about 50%

Structure (SMILES): N[C@@H](Cc1nnc(-c2ccccn2)nn1)C(=O)O [Tet4-Pyr, (S)-2-amino-3-(6-(pyridin-2-yl)-1,2,4,5-tetrazin-3-yl)propanoic acid]
- stability and reactivity inside protein ([1]; GFP-Tet protein, PBS pH 7.1, room temperature): degraded with time
- yield of GFP150-TAG expressed with the ncAA [4]: about 40 mg/L
- yield of GFP150-TAG expressed with the ncAA ([4]; listed as Tet-v4.0Pyr): 35 to 40 mg/L
- incorporation into GFP relative to the Tet-v3.0 system, Tet3-Bu [3]: about 50%
- incorporation into GFP-TAG150 [5]: relatively high yield
